Measured values as given in PMC9187613 (Bioorganic chemistry, 2022).
Entries after “also recorded” stand apart in the source; their conditions may differ. Like-named read-outs stand apart in the source and are kept apart here.

Legend:
ZIKV NS5 RdRp = ZIKV NS5 RdRp (Zika virus, UniProt A0A024B7W1); assay: NS5 RNA-dependent RNA-polymerase activity assay; assay type: biochemical; settings: for inhibition of the RdRp (in words): activity assays
Vero cells = assay: Cytotoxicity assay; settings: for CC50: 48 h, LDH release
[1] = test system: Zika virus (ATCC strain MR 766); assay: ZIKV replication in Vero cells, virus titers by plaque assay; settings: for concentration at which replication was blocked completely: 48 h; for EC50: read-out: Antiviral EC50, MOI 1, 48 h, plaque assay
ZIKV NS2B-NS3 protease = ZIKV NS2B-NS3 protease (Zika virus, UniProt A0A024B7W1); assay: NS2B-NS3 protease activity assay; assay type: biochemical; settings: for inhibition of protease activity: single 200 μM concentration, 80% threshold
Chain of ZIKV NS2B-NS3 protease (A0A024B7W1 1425-1464): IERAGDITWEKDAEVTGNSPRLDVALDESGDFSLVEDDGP
Chain of ZIKV NS2B-NS3 protease (A0A024B7W1 1503-1680): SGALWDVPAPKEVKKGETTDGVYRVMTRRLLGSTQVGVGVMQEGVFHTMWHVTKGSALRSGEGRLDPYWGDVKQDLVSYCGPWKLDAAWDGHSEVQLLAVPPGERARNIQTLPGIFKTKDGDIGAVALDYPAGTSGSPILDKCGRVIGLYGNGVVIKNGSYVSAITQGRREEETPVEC

DENV2 NS2B-NS3 protease = settings: cited from earlier work
[2] = test system: papain-like protease (PL^pro); settings: cited from earlier work
[3] = read-out: NS3pro IC50, 4 nM enzyme, 30 μM Bz-nKRR-AMC, 37 °C

Chain of ZIKV NS5 RdRp (A0A024B7W1 2826-3423): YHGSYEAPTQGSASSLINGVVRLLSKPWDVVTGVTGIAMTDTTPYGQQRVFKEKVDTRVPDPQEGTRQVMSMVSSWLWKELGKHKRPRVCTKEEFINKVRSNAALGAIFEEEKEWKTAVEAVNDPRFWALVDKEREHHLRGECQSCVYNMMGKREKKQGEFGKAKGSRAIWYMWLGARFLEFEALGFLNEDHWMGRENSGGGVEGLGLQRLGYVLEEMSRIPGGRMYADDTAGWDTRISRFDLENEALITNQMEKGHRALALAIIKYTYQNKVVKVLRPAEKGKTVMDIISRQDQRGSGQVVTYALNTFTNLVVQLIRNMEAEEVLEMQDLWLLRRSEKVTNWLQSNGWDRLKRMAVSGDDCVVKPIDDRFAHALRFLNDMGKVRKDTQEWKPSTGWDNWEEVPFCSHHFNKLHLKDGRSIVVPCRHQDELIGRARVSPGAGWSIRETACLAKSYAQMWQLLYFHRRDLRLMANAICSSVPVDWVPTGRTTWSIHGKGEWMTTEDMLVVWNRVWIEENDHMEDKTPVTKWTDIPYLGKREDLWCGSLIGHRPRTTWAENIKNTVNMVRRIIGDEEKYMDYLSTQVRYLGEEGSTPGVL

With COc1ccc(C(=O)/C=C/c2ccc(O)cc2)c(O)c1CC=C(C)C [4-HD, 4-hydroxyderricin] the “inhibition of the RdRp (in words)” value (ZIKV NS5 RdRp) was “XA, but not 4HD or XA-E, inhibited”, the CC50 (Vero cells) was 103 ± 14 µM and the “concentration at which replication was blocked completely” value [1] was 45 µM. For the same compound, the EC50 [1] was 6.6 µM, the IC50 (ZIKV NS2B-NS3 protease; [3]) was 47 ± 10 µM and the “inhibition of protease activity” value (ZIKV NS2B-NS3 protease) was greater than 80%.

For CC(C)=CC[C@@H]1C(C)=CC[C@@H](c2ccccc2)[C@@H]1C(=O)c1c(O)cc(O)cc1O [4-hydroxypanduratin A], the “mode of DENV2 NS2B-NS3 protease inhibition” value (DENV2 NS2B-NS3 protease) is listed as “competitive inhibitory activity”.

In the case of CC(C)=CCC/C(C)=C/Cc1c(O)ccc(C(=O)/C=C/c2ccc(O)cc2)c1O [XA, Xanthoangelol], the IC50 (ZIKV NS5 RdRp) is reported as 6.9 ± 0.9 µM, the “inhibition of polymerase activity” value (ZIKV NS5 RdRp; 20 μM endpoint assay) is reported as 85% and the “cytotoxic effects (in words)” value (Vero cells) is reported as “did not display cytotoxic”. The “anti-ZIKV activity (in words)” value ([1]; concentrations exceeding 50 μM) was “relatively weak anti-ZIKV activity; also recorded: only weak inhibition of ZIKV growth”, the IC50 (ZIKV NS2B-NS3 protease) was 50 ± 5 µM and the inhibition at 200 µM (ZIKV NS2B-NS3 protease; read-out: inhibition of protease activity) was greater than 80%.

For C=C(C)C(Cc1c(OC)ccc(C(=O)/C=C/c2ccc(O)cc2)c1O)OO (centres unmarked) [XA-E, Xanthoangelol E], the “inhibition of the RdRp (in words)” value (ZIKV NS5 RdRp) is listed as “XA, but not 4HD or XA-E, inhibited”, the “mode of SARS-CoV PL^pro inhibition” value [2] is listed as “non-competitive mode” and the IC50 ([2]; read-out: SARS-CoV PL^pro IC50) is listed as 1.2 µM. For the same compound, the CC50 (Vero cells) was 111 ± 10 µM, the “concentration at which replication was blocked completely” value [1] was 75 µM and the EC50 [1] was 22 µM. The “mode of protease inhibition” value (ZIKV NS2B-NS3 protease; Michaelis-Menten and Lineweaver-Burk, consistent Km, decreasing Vmax) was “noncompetitive mode of inhibition”, the IC50 (ZIKV NS2B-NS3 protease; [3]) was 18 ± 5 µM and the “inhibition of protease activity” value (ZIKV NS2B-NS3 protease) was greater than 80%.

For COc1cc(O)c(C(=O)[C@@H]2[C@H](CC=C(C)C)C(C)=CC[C@H]2c2ccccc2)c(O)c1 [panduratin A], the “mode of DENV2 NS2B-NS3 protease inhibition” value (DENV2 NS2B-NS3 protease) is given as “competitive inhibitory activity”.
